{"source": "PubChem BioAssay AID1259407", "about": "(Chemical Carcinogenesis Research Information System (CCRIS), 2018)", "system": "CCRIS mutagenicity, Ames/micronucleus/aberration tests", "assay": "CCRIS mutagenicity studies", "key": {"[1]": {"settings": "Test System: AMES SALMONELLA TYPHIMURIUM, Strain/Indicator: TA98, Metabolic Activation: NONE, Method: PREINCUBATION"}, "[2]": {"settings": "Test System: AMES SALMONELLA TYPHIMURIUM, Strain/Indicator: TA100, Metabolic Activation: NONE, Method: SUSPENSION/PLATE"}}, "note": "Active and inactive are the calls of the source. No rule for the calls is given here."}
{"smiles": "ClCC(Br)CBr", "note": "(stereo not drawn)", "values": [{"measurement": "mutagenic call", "setting": "End Point: IN VITRO CHROMOSOMAL ABERRATIONS, Test System: CHO CELLS, Metabolic Activation: NONE", "result": "active; positive"}, {"measurement": "mutagenic call", "setting": "End Point: IN VITRO CHROMOSOMAL ABERRATIONS, Test System: CHO CELLS, Metabolic Activation: RAT, LIVER, S-9, AROCLOR 1254", "result": "active; positive"}, {"measurement": "mutagenic call", "setting": "Test System: AMES SALMONELLA TYPHIMURIUM, Strain/Indicator: TA97, Metabolic Activation: HAMSTER, LIVER, S-9, AROCLOR 1254 (10%), Method: PREINCUBATION", "result": "active; positive"}, {"measurement": "mutagenic call", "setting": "Test System: AMES SALMONELLA TYPHIMURIUM, Strain/Indicator: TA97, Metabolic Activation: NONE, Method: PREINCUBATION", "result": "inactive; negative"}, {"measurement": "mutagenic call", "setting": "Test System: AMES SALMONELLA TYPHIMURIUM, Strain/Indicator: TA97, Metabolic Activation: RAT, LIVER, S-9, AROCLOR 1254 (10%), Method: PREINCUBATION", "result": "active; positive"}, {"measurement": "mutagenic call", "setting": "Test System: AMES SALMONELLA TYPHIMURIUM, Strain/Indicator: TA98, Metabolic Activation: HAMSTER, LIVER, S-9, AROCLOR 1254 (10%), Method: PREINCUBATION", "result": "active; positive"}, {"measurement": "mutagenic call", "setting": "Test System: AMES SALMONELLA TYPHIMURIUM, Strain/Indicator: TA98, Metabolic Activation: NONE, Method: FLASK ASSAY", "result": "inactive; negative"}, {"measurement": "mutagenic call", "setting": "[1]", "result": "inactive; negative"}, {"measurement": "mutagenic call", "setting": "Test System: AMES SALMONELLA TYPHIMURIUM, Strain/Indicator: TA98, Metabolic Activation: RAT, LIVER, S-9, AROCLOR 1254 (10%), Method: PREINCUBATION", "result": "inactive; negative"}, {"measurement": "mutagenic call", "setting": "Test System: AMES SALMONELLA TYPHIMURIUM, Strain/Indicator: TA98, Metabolic Activation: RAT, LIVER, S-9, AROCLOR 1254, Method: FLASK ASSAY", "result": "active; positive"}, {"measurement": "mutagenic call", "setting": "Test System: AMES SALMONELLA TYPHIMURIUM, Strain/Indicator: TA100, Metabolic Activation: HAMSTER, LIVER, S-9, AROCLOR 1254 (10%), Method: PREINCUBATION", "result": "active; positive"}, {"measurement": "mutagenic call", "setting": "Test System: AMES SALMONELLA TYPHIMURIUM, Strain/Indicator: TA100, Metabolic Activation: NONE, Method: FLASK ASSAY", "result": "inactive; negative"}, {"measurement": "mutagenic call", "setting": "Test System: AMES SALMONELLA TYPHIMURIUM, Strain/Indicator: TA100, Metabolic Activation: NONE, Method: PREINCUBATION", "result": "inactive; negative"}, {"measurement": "mutagenic call", "setting": "Test System: AMES SALMONELLA TYPHIMURIUM, Strain/Indicator: TA100, Metabolic Activation: NONE, Method: STANDARD PLATE", "result": "inactive; negative"}, {"measurement": "mutagenic call", "setting": "[2]", "result": "inactive; negative"}, {"measurement": "mutagenic call", "setting": "Test System: AMES SALMONELLA TYPHIMURIUM, Strain/Indicator: TA100, Metabolic Activation: RAT TESTICULAR CELLS, Method: STANDARD PLATE", "result": "inactive; negative"}, {"measurement": "mutagenic call", "setting": "Test System: AMES SALMONELLA TYPHIMURIUM, Strain/Indicator: TA100, Metabolic Activation: RAT, HEPATOCYTES, AROCLOR 1254, Method: STANDARD PLATE", "result": "active; positive"}, {"measurement": "mutagenic call", "setting": "Test System: AMES SALMONELLA TYPHIMURIUM, Strain/Indicator: TA100, Metabolic Activation: RAT, HEPATOCYTES, Method: STANDARD PLATE", "result": "active; positive"}, {"measurement": "mutagenic call", "setting": "Test System: AMES SALMONELLA TYPHIMURIUM, Strain/Indicator: TA100, Metabolic Activation: RAT, LIVER, HEPATOCYTES, Method: SUSPENSION/PLATE", "result": "active; positive"}, {"measurement": "mutagenic call", "setting": "Test System: AMES SALMONELLA TYPHIMURIUM, Strain/Indicator: TA100, Metabolic Activation: RAT, LIVER, MICROSOMES, AROCLOR 1254, Method: PREINCUBATION", "result": "active; positive"}, {"measurement": "mutagenic call", "setting": "Test System: AMES SALMONELLA TYPHIMURIUM, Strain/Indicator: TA100, Metabolic Activation: RAT, LIVER, MICROSOMES, PHENOBARBITAL, NADPH COFACTORS, Method: STANDARD PLATE", "result": "active; positive"}, {"measurement": "mutagenic call", "setting": "Test System: AMES SALMONELLA TYPHIMURIUM, Strain/Indicator: TA100, Metabolic Activation: RAT, LIVER, MICROSOMES, PHENOBARBITAL, Method: PREINCUBATION", "result": "active; positive"}, {"measurement": "mutagenic call", "setting": "Test System: AMES SALMONELLA TYPHIMURIUM, Strain/Indicator: TA100, Metabolic Activation: RAT, LIVER, MICROSOMES, PHENOBARBITAL, Method: STANDARD PLATE", "result": "inactive; negative"}, {"measurement": "mutagenic call", "setting": "Test System: AMES SALMONELLA TYPHIMURIUM, Strain/Indicator: TA100, Metabolic Activation: RAT, LIVER, MICROSOMES, Method: PREINCUBATION", "result": "active; positive"}, {"measurement": "mutagenic call", "setting": "Test System: AMES SALMONELLA TYPHIMURIUM, Strain/Indicator: TA100, Metabolic Activation: RAT, LIVER, S-9, AROCLOR 1254 (10%), Method: PREINCUBATION", "result": "active; positive"}, {"measurement": "mutagenic call", "setting": "Test System: AMES SALMONELLA TYPHIMURIUM, Strain/Indicator: TA100, Metabolic Activation: RAT, LIVER, S-9, AROCLOR 1254, Method: FLASK ASSAY", "result": "active; positive"}, {"measurement": "mutagenic call", "setting": "Test System: AMES SALMONELLA TYPHIMURIUM, Strain/Indicator: TA100, Metabolic Activation: RAT,TESTICULAR CELLS, AROCLOR 1254, Method: STANDARD PLATE", "result": "inactive; negative"}, {"measurement": "mutagenic call", "setting": "Test System: AMES SALMONELLA TYPHIMURIUM, Strain/Indicator: TA100, Metabolic Activation: S-9 MIX, Method: STANDARD PLATE", "result": "active; positive"}, {"measurement": "mutagenic call", "setting": "Test System: AMES SALMONELLA TYPHIMURIUM, Strain/Indicator: TA1535, Metabolic Activation: HAMSTER, LIVER, S-9, AROCLOR 1254 (10%), Method: PREINCUBATION", "result": "active; positive"}, {"measurement": "mutagenic call", "setting": "Test System: AMES SALMONELLA TYPHIMURIUM, Strain/Indicator: TA1535, Metabolic Activation: NONE, Method: FLASK ASSAY", "result": "active; positive"}, {"measurement": "mutagenic call", "setting": "Test System: AMES SALMONELLA TYPHIMURIUM, Strain/Indicator: TA1535, Metabolic Activation: NONE, Method: PREINCUBATION", "result": "inactive; negative"}, {"measurement": "mutagenic call", "setting": "Test System: AMES SALMONELLA TYPHIMURIUM, Strain/Indicator: TA1535, Metabolic Activation: RAT, LIVER, S-9, AROCLOR 1254 (10%), Method: PREINCUBATION", "result": "active; positive"}, {"measurement": "mutagenic call", "setting": "Test System: AMES SALMONELLA TYPHIMURIUM, Strain/Indicator: TA1535, Metabolic Activation: RAT, LIVER, S-9, AROCLOR 1254, Method: FLASK ASSAY", "result": "active; positive"}, {"measurement": "mutagenic call", "setting": "Test System: AMES SALMONELLA TYPHIMURIUM, Strain/Indicator: TA1537, Metabolic Activation: HAMSTER, LIVER, S-9, AROCLOR 1254 (10%), Method: PREINCUBATION", "result": "inactive; negative"}, {"measurement": "mutagenic call", "setting": "Test System: AMES SALMONELLA TYPHIMURIUM, Strain/Indicator: TA1537, Metabolic Activation: NONE, Method: FLASK ASSAY", "result": "inactive; negative"}, {"measurement": "mutagenic call", "setting": "Test System: AMES SALMONELLA TYPHIMURIUM, Strain/Indicator: TA1537, Metabolic Activation: RAT, LIVER, S-9, AROCLOR 1254 (10%), Method: PREINCUBATION", "result": "inactive; negative"}, {"measurement": "mutagenic call", "setting": "Test System: AMES SALMONELLA TYPHIMURIUM, Strain/Indicator: TA1537, Metabolic Activation: RAT, LIVER, S-9, AROCLOR 1254, Method: FLASK ASSAY", "result": "inactive; negative"}, {"measurement": "mutagenic call", "setting": "Test System: AMES SALMONELLA TYPHIMURIUM, Strain/Indicator: TA1538, Metabolic Activation: NONE, Method: FLASK ASSAY", "result": "inactive; negative"}, {"measurement": "mutagenic call", "setting": "Test System: AMES SALMONELLA TYPHIMURIUM, Strain/Indicator: TA1538, Metabolic Activation: RAT, LIVER, S-9, AROCLOR 1254, Method: FLASK ASSAY", "result": "inactive; negative"}, {"measurement": "mutagenic call", "setting": "Test System: MOUSE LYMPHOMA, Strain/Indicator: L5178Y (TK+/TK-), Metabolic Activation: NONE, Method: SUSPENSION/PLATE", "result": "active; positive"}, {"measurement": "mutagenic call", "setting": "Test System: MOUSE LYMPHOMA, Strain/Indicator: L5178Y (TK+/TK-), Metabolic Activation: RAT, LIVER, S-9, AROCLOR 1254, Method: SUSPENSION/PLATE", "result": "active; positive"}, {"measurement": "mutagenic call", "setting": "Test System: UDS RODENT HEPATOCYTES, Strain/Indicator: THY INCORP (NON-S-PHASE), Metabolic Activation: AROCLOR 1254, Method: LIQUID SCINTILLATION COUNTING", "result": "inactive; negative"}, {"measurement": "mutagenic call", "setting": "Test System: UDS RODENT HEPATOCYTES, Strain/Indicator: THY INCORP (NON-S-PHASE), Metabolic Activation: NONE, Method: LIQUID SCINTILLATION COUNTING", "result": "active; positive"}]}
{"smiles": "Nc1cc(Cl)c(Cl)cc1Cl", "values": [{"measurement": "mutagenic call", "setting": "Test System: UDS RODENT HEPATOCYTES, Strain/Indicator: THY INCORP (NON-S-PHASE), Metabolic Activation: NONE, Method: AUTORADIOGRAPHY", "result": "inactive; negative"}]}
{"smiles": "CC(C)NC(=O)/C=C/c1ccc([N+](=O)[O-])o1", "values": [{"measurement": "mutagenic call", "setting": "[1]", "result": "active; positive"}, {"measurement": "mutagenic call", "setting": "Test System: CHINESE HAMSTER V-79, Strain/Indicator: V-79/6-THIOGUANINE, Metabolic Activation: NONE, Method: STANDARD PLATE", "result": "active; positive"}]}
{"smiles": "[CH3][Sn]([Cl])([Cl])[Cl]", "values": [{"measurement": "mutagenic call", "setting": "Test System: AMES SALMONELLA TYPHIMURIUM, Strain/Indicator: TA98, Metabolic Activation: NONE, Method: SUSPENSION/PLATE", "result": "inactive; negative"}, {"measurement": "mutagenic call", "setting": "[2]", "result": "inactive; negative"}]}
